The term IC50 denotes the point on the concentration scale where inhibition reaches its midpoint. A lower IC50 goes with higher potency.

T1 sequence (P08238 whole entry): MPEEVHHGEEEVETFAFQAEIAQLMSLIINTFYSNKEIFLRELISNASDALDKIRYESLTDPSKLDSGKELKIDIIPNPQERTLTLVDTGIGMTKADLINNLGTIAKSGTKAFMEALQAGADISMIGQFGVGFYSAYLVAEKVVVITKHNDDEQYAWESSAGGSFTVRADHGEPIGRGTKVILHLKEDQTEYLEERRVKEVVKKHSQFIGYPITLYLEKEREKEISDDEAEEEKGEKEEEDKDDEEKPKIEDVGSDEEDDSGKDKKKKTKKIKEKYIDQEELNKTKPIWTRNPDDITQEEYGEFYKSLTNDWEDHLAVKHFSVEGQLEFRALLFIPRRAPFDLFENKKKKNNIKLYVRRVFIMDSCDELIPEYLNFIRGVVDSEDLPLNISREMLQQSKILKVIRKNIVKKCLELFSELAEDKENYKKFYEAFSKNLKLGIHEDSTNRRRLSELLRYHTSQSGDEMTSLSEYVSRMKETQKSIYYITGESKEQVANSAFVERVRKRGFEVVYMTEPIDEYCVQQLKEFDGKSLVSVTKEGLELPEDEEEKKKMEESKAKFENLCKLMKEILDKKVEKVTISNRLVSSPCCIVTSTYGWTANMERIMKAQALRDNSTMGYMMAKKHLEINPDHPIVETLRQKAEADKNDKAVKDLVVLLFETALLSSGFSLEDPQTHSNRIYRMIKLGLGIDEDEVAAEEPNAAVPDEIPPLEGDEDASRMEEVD

The first experiment has as its target T1, Heat shock protein HSP 90-beta (Homo sapiens, UniProt P08238). Briefly: Inhibition of HSP90 (unknown origin) by luciferase refolding assay.
`O=C(O[C@@H]1Cc2c(O)cc(O)cc2O[C@@H]1c1cc(O)c(O)c(O)c1)c1ccccc1` displayed an IC50 of 24 µM. Consider `O=C(N[C@@H]1Cc2c(O)cc(O)cc2O[C@@H]1c1cc(O)c(O)c(O)c1)c1ccccc1`, for which it took 75 µM to reach half-maximal inhibition (IC50). On the same count and under the same terms, to `O=C(O[C@H]1Cc2c(O)cc(O)cc2O[C@@H]1c1ccc(O)c(O)c1)c1ccccc1` belongs 110 µM; to `O=C(O[C@@H]1Cc2c(O)cc(O)cc2O[C@@H]1c1cc(O)c(O)c(O)c1)c1ccc(F)c(F)c1`, 58 µM; to `O=C(O[C@H]1Cc2c(O)cc(O)cc2O[C@@H]1c1ccccc1)c1cc(O)c(O)c(O)c1` (racemic), 150 µM.

Turning to `O=C(O[C@@H]1Cc2ccccc2O[C@@H]1c1ccccc1)c1cc(O)c(O)c(O)c1` (racemic), the midpoint of inhibition, the IC50, lay at 35 µM. As for `O=C(O[C@H]1Cc2c(O)cc(O)cc2O[C@@H]1c1ccccc1)c1ccccc1` (racemic), the IC50 is 120 µM.

Molecule `O=C(O[C@@H]1Cc2c(O)cc(O)cc2O[C@@H]1c1ccc(O)c(O)c1)[C@H]1CC[C@H](O)CC1` had an IC50 of 440 µM.

For `O=C(O[C@@H]1Cc2c(O)cc(O)cc2O[C@@H]1c1ccc(O)c(O)c1)[C@H]1CC[C@@H](O)CC1`, the IC50 is 310 µM. In turn, `O=C(O[C@@H]1Cc2c(O)cc(O)cc2O[C@@H]1c1ccc(O)c(O)c1)C1CC1` returned an IC50 of 410 µM. On to `O=C(O[C@@H]1Cc2c(O)cc(O)cc2O[C@@H]1c1cc(O)c(O)c(O)c1)C1CCCCC1`, for which the IC50 was determined as 30 µM.

`O=C(O[C@@H]1Cc2c(O)cc(O)cc2O[C@H]1c1cc(O)c(O)c(O)c1)c1cc(O)c(O)c(O)c1` [GALLOCATECHIN GALLATE] returned an IC50 of 34 µM. Still for that read-out and setting: the same measure for `O=C(O[C@@H]1Cc2c(O)cc(O)cc2O[C@@H]1c1cc(O)c(O)c(O)c1)c1cc(O)c(O)c(O)c1` [EPIGALOCATECHIN GALLATE]: 155 µM. Still for that read-out and setting: the same measure for `O=S(=O)(N[C@@H]1Cc2c(O)cc(O)cc2O[C@@H]1c1cc(O)c(O)c(O)c1)c1ccccc1`: 44 µM; for `O=C(O[C@@H]1Cc2c(O)cc(O)cc2O[C@@H]1c1cc(O)c(O)c(O)c1)c1ccncc1`: 64 µM; for `O=C(O[C@H]1Cc2c(O)cc(O)cc2O[C@@H]1c1ccc(O)c(O)c1)C1CCCCC1`: 98 µM. Still for that read-out and setting: the same measure for `O=C(O[C@@H]1Cc2c(O)cc(O)cc2O[C@@H]1c1ccc(O)c(O)c1)[C@H]1CC[C@H](F)CC1`: 69 µM; for `O=C(O[C@@H]1Cc2c(O)cc(O)cc2O[C@@H]1c1ccccc1)c1ccccc1` (racemic): 63 µM; for `O=C(O[C@@H]1Cc2c(O)cc(O)cc2O[C@@H]1c1cc(O)c(O)c(O)c1)c1ccc(F)cc1`: 41 µM.

`O=C(O[C@H]1Cc2c(O)cc(O)cc2O[C@@H]1c1ccc(O)c(O)c1)[C@H]1CC[C@@H](O)CC1` yielded an IC50 of 280 µM. As for `O=C(O[C@@H]1Cc2c(O)cc(O)cc2O[C@@H]1c1ccc(O)c(O)c1)C1CCCCC1`, the IC50 was 81 µM. Turning to `O=C(O[C@@H]1Cc2c(O)cc(O)cc2O[C@@H]1c1ccc(O)c(O)c1)[C@H]1CC[C@@H](F)CC1`, the IC50 was 65 µM.

The target of the next experiment is T1, Heat shock protein HSP 90-beta. In words: Ratio of EGCG IC50 to compound IC50 for HSP90 (unknown origin).
As to `O=S(=O)(N[C@@H]1Cc2c(O)cc(O)cc2O[C@@H]1c1cc(O)c(O)c(O)c1)c1ccccc1`, the Ratio IC50 worked out at 3.
